Test results from patent publication US6703412B1 (priority 2002, dated 2004).

Columns and labels:
sleeplessness [1] = assay: Example 1: melatonin capsules for subjects having difficulty falling asleep at normal bedtime; assay type: in vivo, human; settings: 1.5 mg capsules after one hour of trying to fall asleep
mice = mice given 800 mg/kg; cited from earlier work
sleeplessness [2] = assay: Example 2: melatonin capsules for subjects who awake midway during normal sleep period; assay type: in vivo, human; settings: 1.5 mg capsules after 15 minutes of trying to fall back asleep
Description: Subjects are those who awake at about midway during their normal sleep period and once awake have trouble falling back asleep.

[3] = 2-100 mg doses, man; cited from earlier work

Compound: COc1ccc2[nH]cc(CCNC(C)=O)c2c1 [Melatonin, N-acetyl-5-methyoxytryptamine]
- sleep maintenance (sleeplessness [1]): sleep through the night
- state on awakening (sleeplessness [1]): alert, without any decrement in faculties
- time to fall asleep (sleeplessness [1]): ≤ 20 min
- death (mice): failed to produce death
- sleep maintenance (sleeplessness [2]): sleep through the remainder of the night
- state on awakening (sleeplessness [2]): refreshed, and not sleepy or drowsy
- time to fall asleep (sleeplessness [2]): ≤ 20 min
- time until awakening (sleeplessness [2]): 3 to 4 h
- biological half-life [3]: 32-48 minutes
